Assay results published in the RepoRT retention time repository (doi:10.1016/j.scitotenv.2015.09.145).

Assay: Waters Atlantis T3, 100 × 2.1 mm, 3 µm, 0.1 mL/min, estimated dead time 2.2 min; A: water + 0.01% formic acid; B: methanol; gradient (min/%B) 0/2 3/2 20/100 29/100
Conditions: stereoisomer not certain

Row | SMILES | LC retention time [min]
1 | COc1ccc2c3c1OC1C(O)C=CC4C(C2)N(C)CCC341 (stereo not given) | 12.2
2 | CCC1OC(=O)C(C)C(OC2CC(C)(OC)C(O)C(C)O2)C(C)C(OC2OC(C)CC(N(C)C)C2O)C(C)(OC)CC(C)C(=O)C(C)C(O)C1(C)O (stereo not given) | 19.6
3 | CC=C1N(C)C(C)CC1(c1ccccc1)c1ccccc1 (stereo not given) | 16.9
4 | NCC1(CC(=O)O)CCCCC1 | 13.3
5 | CCn1cc(C(=O)O)c(=O)c2cc3c(cc21)OCO3 | 20.1
6 | CC(=O)Oc1ccc2c3c1OC1C(OC(C)=O)C=CC4C(C2)N(C)CCC341 (stereo not given) | 14.7
7 | CCC(C(N)=O)N1CCCC1=O (stereo not given) | 13.6
8 | COc1ccc(C(CN(C)C)C2(O)CCCCC2)cc1 (stereo not given) | 16.6
9 | O=C1CN=C(c2ccccc2)c2cc([N+](=O)[O-])ccc2N1 | 20.4
10 | CN1C2CCC1C(C(=O)O)C(OC(=O)c1ccccc1)C2 (stereo not given) | 15.7
11 | CN1CCC23c4c5ccc(O)c4OC2C(O)C=CC3C1C5 (stereo not given) | 10.1
12 | CN(C)C1C(=O)C(C(N)=O)=C(O)C2(O)C(=O)C3=C(O)c4c(O)cccc4C(C)(O)C3CC12 (stereo not given) | 14.8
13 | CCC1OC(=O)C(C)C(OC2CC(C)(OC)C(O)C(C)O2)C(C)C(OC2OC(C)CC(N(C)C)C2O)C(C)(O)CC(C)CN(C)C(C)C(O)C1(C)O (stereo not given) | 17.4
14 | c1ccc2c(c1)Cc1cccnc1N1CCNCC21 (stereo not given) | 15.7
15 | CNC(C)Cc1ccc2c(c1)OCO2 (stereo not given) | 17.4
16 | COc1ccc2c3c1OC1C(=O)CCC4(O)C(C2)N(C)CCC314 (stereo not given) | 12.6
17 | CN1CCN2c3ncc(O)cc3Cc3ccccc3C2C1 (stereo not given) | 14.4
18 | CNC(C)C(O)c1ccccc1 (stereo not given) | 12.4

Row | SMILES | LC retention time [min]
19 | COC(=O)C1C(OC(=O)c2ccccc2)CC2CCC1N2C (stereo not given) | 14.9
20 | CCC1OC(=O)C(C)C(OC2CC(C)(OC)C(O)C(C)O2)C(C)C(OC2OC(C)CC(N(C)C)C2O)C(C)(O)CC(C)C(=O)C(C)C(O)C1(C)O (stereo not given) | 18.5
21 | C=CC1(C)CC(OC(=O)CSCCN(CC)CC)C2(C)C(C)CCC3(CCC(=O)C32)C(C)C1O (stereo not given) | 18.1
22 | CNC(C)Cc1ccccc1 (stereo not given) | 13.5
23 | CCC(=O)C(CC(C)N(C)C)(c1ccccc1)c1ccccc1 (stereo not given) | 18.5
24 | CCN(CC)C(=O)C1C=C2c3cccc4[nH]cc(c34)CC2N(C)C1 (stereo not given) | 15.8
25 | CCNC(C)Cc1ccc2c(c1)OCO2 (stereo not given) | 14.1
26 | CC(=O)OC1C=CC2C3Cc4ccc(O)c5c4C2(CCN3C)C1O5 (stereo not given) | 13
27 | CC(N)Cc1ccccc1 (stereo not given) | 13.3
28 | CCCC1CC(C(=O)NC(C(C)O)C2OC(SC)C(O)C(O)C2O)N(C)C1 (stereo not given) | 13.3
29 | CC(N)Cc1ccc2c(c1)OCO2 (stereo not given) | 13.6
30 | CC(C)CC(CN)CC(=O)O (stereo not given) | 13.2
31 | COc1cccc(C2(O)CCCCC2CN(C)C)c1 (stereo not given) | 14.6
32 | CCC1OC(=O)CC(O)C(C)C(OC2OC(C)C(OC3CC(C)(O)C(O)C(C)O3)C(N(C)C)C2O)C(CC=O)CC(C)C(=O)C=CC(C)=CC1COC1OC(C)C(O)C(OC)C1OC (stereo not given) | 18.3
33 | CCN(C)C(=O)Oc1cccc(C(C)N(C)C)c1 (stereo not given) | 14.8
34 | COCC(NC(C)=O)C(=O)NCc1ccccc1 (stereo not given) | 16.8
35 | Cc1ccc(-c2nc3ccc(C)cn3c2CC(=O)N(C)C)cc1 | 15.5
36 | CN(C)C1C(=O)C(C(N)=O)=C(O)C2(O)C(=O)C3=C(O)c4c(O)cccc4C(C)(O)C3C(O)C12 (stereo not given) | 15.1

Next, values leading:

Row | LC retention time [min] | SMILES
37 | 13.5 | Nc1ccc(S(=O)(=O)Nc2nccs2)cc1
38 | 11.6 | CCN1CCCC1CNC(=O)c1cc(S(N)(=O)=O)ccc1OC (stereo not given)
39 | 13.1 | CC(=O)Nc1ccc(O)cc1
40 | 17 | CCC1(c2ccccc2)C(=O)NCNC1=O
41 | 28.1 | CC1(C)SC2C(NC(=O)C(N)c3ccc(O)cc3)C(=O)N2C1C(=O)O (stereo not given)
42 | 23.2 | CCCCC(=O)N(Cc1ccc(-c2ccccc2-c2nn[nH]n2)cc1)C(C(=O)O)C(C)C (stereo not given)
43 | 13.2 | Nc1ccc(S(=O)(=O)Nc2ncccn2)cc1
44 | 11.9 | CN=C(NC#N)NCCSCc1nc[nH]c1C
45 | 18.6 | CN(C)CCCN1c2ccccc2CCc2ccccc21
46 | 14.8 | Cc1nnc(NS(=O)(=O)c2ccc(N)cc2)s1
47 | 7.11 | NC(N)=NS(=O)(=O)c1ccc(N)cc1
48 | 14.2 | CCN(CC)CC(=O)Nc1c(C)cccc1C
49 | 14.7 | Nc1nc(N)c2nc(-c3ccccc3)c(N)nc2n1
50 | 17.6 | CN(C)CCC=C1c2ccccc2COc2ccccc21
51 | 14.8 | CNCC(c1ccc(OC)cc1)C1(O)CCCCC1 (stereo not given)
52 | 19.1 | CNCCC=C1c2ccccc2CCc2ccccc21
53 | 14.5 | Cc1noc(NS(=O)(=O)c2ccc(N)cc2)c1C
54 | 13.5 | COc1cc(Cc2cnc(N)nc2N)cc(OC)c1OC
55 | 16 | Cc1nc(NS(=O)(=O)c2ccc(N)cc2)oc1C
56 | 19.6 | Cc1ccsc1C(=CCCN1CCCC(C(=O)O)C1)c1sccc1C (stereo not given)
57 | 15 | Cc1cc(C)nc(NS(=O)(=O)c2ccc(N)cc2)n1
58 | 24.7 | CC(=O)C1CCC2C3CCC4=CC(=O)CCC4(C)C3CCC12C (stereo not given)
59 | 14.3 | Cn1c(=O)c2[nH]cnc2n(C)c1=O
60 | 14.2 | Cc1ccnc(NS(=O)(=O)c2ccc(N)cc2)n1
61 | 17.8 | Nc1ccc(S(=O)(=O)Nc2cnc3ccccc3n2)cc1

Row | LC retention time [min] | SMILES
62 | 17.7 | CC1c2cccc(O)c2C(O)=C2C(=O)C3(O)C(O)=C(C(N)=O)C(=O)C(N(C)C)C3C(O)C21 (stereo not given)
63 | 18.8 | NC(=O)N1c2ccccc2CC(=O)c2ccccc21
64 | 15.2 | COc1cc(NS(=O)(=O)c2ccc(N)cc2)ncn1
65 | 16 | COc1ncnc(NS(=O)(=O)c2ccc(N)cc2)c1OC
66 | 15.2 | Cn1c(=O)c2c(ncn2C)n(C)c1=O
67 | 15.5 | CN1CCN2c3ncccc3Cc3ccccc3C2C1 (stereo not given)
68 | 20.1 | NC(=O)N1c2ccccc2C=Cc2ccccc21
69 | 17.5 | COc1cc(NS(=O)(=O)c2ccc(N)cc2)nc(OC)n1
70 | 20.4 | Cc1cc2c(s1)Nc1ccccc1N=C2N1CCN(C)CC1
71 | 27 | CCC(C)(C)C(=O)OC1CC(C)C=C2C=CC(C)C(CCC3CC(O)CC(=O)O3)C21 (stereo not given)
72 | 16 | COc1ccc(NS(=O)(=O)c2ccc(N)cc2)nn1
73 | 14.3 | CC1=C(C(=O)O)N2C(=O)C(NC(=O)C(N)c3ccccc3)C2SC1 (stereo not given)
74 | 13.8 | Nc1ccc(S(=O)(=O)Nc2ccccn2)cc1
75 | 13.1 | Cn1c([N+](=O)[O-])cnc1COC(N)=O
76 | 18.9 | CN(C)CCC=C1c2ccccc2CCc2ccccc21
77 | 13.2 | Cc1ncc([N+](=O)[O-])n1CCO
78 | 11.8 | CNC(=C[N+](=O)[O-])NCCSCc1ccc(CN(C)C)o1
79 | 13.4 | CCN1CCCC1CNC(=O)c1cc(S(=O)(=O)CC)c(N)cc1OC (stereo not given)
80 | 18.7 | CNCCC(Oc1cccc2ccccc12)c1cccs1 (stereo not given)
81 | 17.6 | OCCOCCN1CCN(C2=Nc3ccccc3Sc3ccccc32)CC1
82 | 11.7 | CC(C)NCC(O)COc1ccc(CC(N)=O)cc1 (stereo not given)
83 | 17.1 | CC(C)NCC(O)COc1cccc2ccccc12 (stereo not given)
84 | 15 | COCCc1ccc(OCC(O)CNC(C)C)cc1 (stereo not given)
85 | 15.7 | Cc1cc(NS(=O)(=O)c2ccc(N)cc2)no1
